The values below are quoted from earlier work in patent publication US7083803B2, “Ocular solutions” (Advanced Ocular Systems Limited, priority 2003, dated 2006).

Molecules are shown by their SMILES.

The conditions of series [1]: administered systemically.

With `C=CC[C@@H]1/C=C(\C)C[C@H](C)C[C@H](OC)[C@H]2O[C@@](O)(C(=O)C(=O)N3CCCC[C@H]3C(=O)O[C@H](/C(C)=C/[C@@H]3CC[C@@H](O)[C@H](OC)C3)[C@H](C)[C@@H](O)CC1=O)[C@H](C)C[C@@H]2OC` [Tacrolimus, tacrolimus], the local tolerability entry in the series on atopic dermatitis (topical administration) was “well tolerated locally”. Besides, the “adverse effects, treated versus control groups” value in the series on atopic dermatitis (topical administration for dermatoses at concentrations up to 0.3%) is “no significant difference”. In the series with atopic dermatitis (topical administration, doses 0.03%–0.3%, after 2–3 weeks treatment), the “clinical improvement in atopic dermatitis” value was “significant clinical improvement”. For the same compound, the “renal and hepatic toxicity” value in series [1] is “significant renal and hepatic toxicity”. The solubility in chloroform result (chloroform) was “very soluble”. Further, the solubility in ethanol entry (ethanol) is recorded as “freely soluble”. The solubility in methanol entry (methanol) is listed as “very soluble”. Also, the solubility in water entry (water) is listed as “practically insoluble”.
